Source: article PMC7822874, “Chemoprotective antimalarials identified through quantitative high-throughput screening of Plasmodium blood and liver stage parasites” (Scientific Reports, 2021)
Values joined by “and” are separate entries in the source; they are usually repeats but may differ in a detail not shown here. Equal entries are not always repeated. Where two headings read alike, the source gives them in different places.

Assays:
[1] = tested on: Plasmodium falciparum Dd2 asexual blood stage parasites; experiment: microbe, parasite or virus in culture; parameters: species or system Plasmodium falciparum Dd2 in human erythrocytes; single determination (one 11-point concentration-response curve); settings: Plasmodium falciparum, DD2, Erythrocyte, 72 h; read-out: AC50
[2] = tested on: HepG2-A16-CD81EGFP cells; settings: for HepG2 1uM growth rep1 / HepG2 1uM growth rep2: HepG2, 1 µM compound treatment (10 mM stocks); for HepG2 1uM growth rep1 / HepG2 3uM growth rep1: replicate 1, normalized; for HepG2 1uM growth rep1 / HepG2 1uM growth rep2 / HepG2 3uM growth rep1 / HepG2 3uM growth rep2: average of 2 wells; for HepG2 1uM growth rep2 / HepG2 3uM growth rep2: replicate 2, normalized; for HepG2 3uM growth rep1 / HepG2 3uM growth rep2: HepG2, 3 µM compound treatment (10 mM stocks); for Average HepG2 3 µM response( %): averaged response (percent)
[3] = tested on: P. berghei-ANKA-GFP-LucCON liver stage parasites in HepG2-A16-CD81EGFP cells; experiment: P. berghei liver stage Pb-Luc assay, Method 1 (UCSD, 1536-well); assay type: cell-based, Plasmodium berghei; settings: for activity at 1 µM / activity at 3 µM: Plasmodium berghei, 48 h; for activity at 1 µM / activity at 3 µM / PbLuc 1uM growth rep1 / PbLuc 1uM growth rep2 / PbLuc 3uM growth rep1 / PbLuc 3uM growth rep2 / Average P. berghei 3 µM response( %) / Average P. berghei 1 µM response (%): P. berghei liver stage; for activity at 1 µM / PbLuc 1uM growth rep1 / PbLuc 1uM growth rep2: 1 µM compound treatment (10 mM stocks); for activity at 1 µM / activity at 3 µM / PbLuc 1uM growth rep1 / PbLuc 1uM growth rep2 / PbLuc 3uM growth rep1 / PbLuc 3uM growth rep2: average of 2 wells on a 1536 well plate; for activity at 3 µM / PbLuc 3uM growth rep1 / PbLuc 3uM growth rep2: 3 µM compound treatment (10 mM stocks); for Average P. berghei 3 µM response( %) / Average P. berghei 1 µM response (%): averaged response (percent); for Average P. berghei 1 µM response (%): the header list (r8) defines it as the 1 µM dose
[4] = replicate 1, normalized, read-out: PbLuc 1uM growth rep1
[5] = replicate 2, normalized, read-out: PbLuc 1uM growth rep2
[6] = replicate 1, normalized, read-out: PbLuc 3uM growth rep1
[7] = replicate 2, normalized, read-out: PbLuc 3uM growth rep2
[8] = HepG2, the header list (r10) describes it as the 1 µM dose

Structure (SMILES) | HepG2 1uM growth rep1 [2] | HepG2 1uM growth rep2 [2] | HepG2 3uM growth rep1 [2] | HepG2 3uM growth rep2 [2] | activity at 1 µM [3, 4] | activity at 1 µM [3, 5] | activity at 3 µM [3, 6] | activity at 3 µM [3, 7] | PbLuc 1uM growth rep1 ([3]; replicate 1, normalized) | PbLuc 1uM growth rep2 ([3]; replicate 2, normalized) | PbLuc 3uM growth rep1 ([3]; replicate 1, normalized) | PbLuc 3uM growth rep2 ([3]; replicate 2, normalized) | other results
CCCCN(C(=O)c1cccc(S(=O)(=O)N(C)c2ccc(C)cc2)c1)c1c(N)n(CCCC)c(=O)[nH]c1=O [MLS001128188-01] | 96% | 92% | 90% | 93% | 100% | 88% | 85% | 111% |  |  |  |  | AC50 [1]: 5.31 µM
COc1ccc(-n2nc(C(=O)NCC(=O)N3CCN(c4ccccc4OC)CC3)c3ccccc3c2=O)c(OC)c1 [MLS000936211-01] | 89% | 88% | 92% | 89% | 82% | 118% | 90% | 112% |  |  |  |  | AC50 [1]: 2.11 µM
CCOc1ccccc1NC(=O)Cn1c(-c2ccc(Cl)cc2)noc1=O [MLS000529487-01] | 101% | 91% | 84% | 90% | 100% | 128% | 102% | 133% |  |  |  |  | AC50 [1]: 5.96 µM
COc1ccc(OC)c(-n2c(S)nnc2-c2cccc(O)c2)c1 [MLS000089016-01] | 97% | 93% | 90% | 96% | 141% | 98% | 86% | 109% |  |  |  |  | AC50 [1]: 4.22 µM
Cc1ccc(Nc2cc(C)nc(NCc3ccccc3)n2)cc1 [MLS000574704-01] | 83% | 84% | 81% | 80% | 61% | 54% | 31% | 43% |  |  |  |  | 
CC(C)N(Cc1ccccc1)C(=O)CN1C(=O)COc2ccc(S(=O)(=O)N3CCCCCC3)cc21 [MLS001124552-01] | 91% | 91% | 88% | 90% |  |  |  |  | 121% | 115% | 113% | 144% | 
O=C(CCCCCCC(=O)Nc1ccccc1)NO [NCGC00168085-22] |  |  |  |  |  |  |  |  |  |  |  |  | HepG2 viability signal, 1 uM, repeat 1 [2]: 84.33%; HepG2 viability signal, 1 uM, repeat 2 [2]: 78.31%; HepG2 viability signal, 3 uM, repeat 1 [2]: 48.31%; HepG2 viability signal, 3 uM, repeat 2 [2]: 48.65%; Pb-Luc signal, 1 uM, repeat 1 ([3]; nominal 1 uM (10 mM stock), […] for 15 mM, 1.2 uM for 12 mM, 2 uM for 20 mM stock, average of 2 wells, 1536-well plate, repeat 1): 18.69%; Pb-Luc signal, 1 uM, repeat 2 ([3]; nominal 1 uM (10 mM stock), […] for 15 mM, 1.2 uM for 12 mM, 2 uM for 20 mM stock, average of 2 wells, 1536-well plate, repeat 2): 22.42%; Pb-Luc signal, 1 uM, repeat 3 ([3]; nominal 1 uM (10 mM stock), […] for 15 mM, 1.2 uM for 12 mM, 2 uM for 20 mM stock, average of 2 wells, 1536-well plate, repeat 3): 16.08%; Pb-Luc signal, 3 uM, repeat 1 ([3]; nominal 3 uM (10 mM stock), 4.5 uM for 15 mM, 3.6 uM for 12 mM, 6 uM for 20 mM stock, average of 2 wells, 1536-well plate, repeat 1): 2.01%; Pb-Luc signal, 3 uM, repeat 2 ([3]; nominal 3 uM (10 mM stock), 4.5 uM for 15 mM, 3.6 uM for 12 mM, 6 uM for 20 mM stock, average of 2 wells, 1536-well plate, repeat 2): 4.89%; Pb-Luc signal, 3 uM, repeat 3 ([3]; nominal 3 uM (10 mM stock), 4.5 uM for 15 mM, 3.6 uM for 12 mM, 6 uM for 20 mM stock, average of 2 wells, 1536-well plate, repeat 3): 2.03%
CC(=O)OC[C@]12CCC(C)=C[C@H]1O[C@@H]1[C@H](O)[C@@H](OC(C)=O)[C@@]2(C)[C@]12CO2 [MLS000863617-01] |  |  |  |  |  |  |  |  |  |  |  |  | HepG2 viability, % of control, column 14 [2]: 5.74%; HepG2 viability, % of control, column 15 [2]: 8.75%; HepG2 viability, % of control, column 16 [2]: 5.74%; HepG2 viability, % of control, column 17 [2]: 8.75%; Pb-Luc (P. berghei liver stage luciferase signal), % of control, repeat 1 [3]: 4.68% and -0.33%; Pb-Luc (P. berghei liver stage luciferase signal), % of control, repeat 2 [3]: 4.34% and -1.04%; Pb-Luc (P. berghei liver stage luciferase signal), % of control, repeat 3 [3]: -2.60% and 1.77%
Br.N=c1n(CCN2CCCCC2)c2ccccc2n1CC(=O)c1ccc(Cl)c(Cl)c1 [MLS001042209-01] | 87% | 90% | 85% | 90% |  |  |  |  | 90% | 95% | 75% | 102% | 
COc1cc(OC)c(OC)cc1CN1CCc2nc(N(C)C)[nH]c(=O)c2CC1 [NCGC00440589] |  |  |  |  |  |  |  |  |  |  |  |  | Average HepG2 3 µM response( %) ([2]; HepG2, 3 µM dose): 100%; Average HepG2 3 µM response( %) [2, 8]: 102%; Average P. berghei 3 µM response( %) [3]: 112%; Average P. berghei 1 µM response (%) [3]: 99%
C=C(C)CSc1nc2sc3c(c2c(=O)n1-c1ccc(C)cc1)CCN(C)C3 [MLS001173676-01] | 102% | 92% | 84% | 90% |  |  |  |  | 91% | 84% | 44% | 74% | 
Cc1cc(C)n(Cc2ccc(C(=O)N3CCC(c4noc(-c5cccnc5)n4)C3)o2)n1 (centres unmarked) [NCGC00441856] |  |  |  |  |  |  |  |  |  |  |  |  | Average HepG2 3 µM response( %) ([2]; HepG2, 3 µM dose): 104%; Average HepG2 3 µM response( %) [2, 8]: 103%; Average P. berghei 3 µM response( %) [3]: 100%; Average P. berghei 1 µM response (%) [3]: 107%
Cc1ccc(Nc2cc(C)c3ccc(O)cc3n2)cc1C.Cl [MLS000674791-01] | 98% | 92% | 89% | 95% |  |  |  |  | 115% | 107% | 69% | 101% | 
Oc1ccccc1Nc1nc(NCc2ccccc2)c2ccccc2n1 [MLS000693415-01] | 89% | 90% | 92% | 90% | 72% | 80% | 65% | 75% |  |  |  |  | 
Cc1ccc(-c2cc(C(=O)Nc3ccc(S(=O)(=O)N4CC(C)OC(C)C4)cc3)[nH]n2)c(O)c1 (centres unmarked) [MLS000779230-01] | 106% | 100% | 84% | 94% |  |  |  |  | 151% | 112% | 73% | 94% | 
CCSc1nc2sc3c(c2c(=O)n1-c1ccccc1)CCN(C(C)C)C3 [MLS001173590-01] | 104% | 95% | 87% | 98% |  |  |  |  | 97% | 84% | 60% | 65% | 
